Patent US5223421A, “Identification of methionine Nα-acetyltransferase” (The General Hospital Corporation, priority 1990, dated 1993)
Several values for one entry are separate records, joined by “and”; a condition that tells them apart may be missing. Equal values may be shown once. Entries after “also recorded” stand apart in the source; their conditions may differ. Read-outs that look alike come from different tables or passages of the source.

Legend:
[1] = molecular target: T1, yeast N^α AT (Saccharomyces cerevisiae, UniProt P07347+P12945); test: Effect of ions and reagents on yeast N^α AT (comparison in the discussion); assay type: biochemical
T1 sequence (P12945 2-854 limits assumed): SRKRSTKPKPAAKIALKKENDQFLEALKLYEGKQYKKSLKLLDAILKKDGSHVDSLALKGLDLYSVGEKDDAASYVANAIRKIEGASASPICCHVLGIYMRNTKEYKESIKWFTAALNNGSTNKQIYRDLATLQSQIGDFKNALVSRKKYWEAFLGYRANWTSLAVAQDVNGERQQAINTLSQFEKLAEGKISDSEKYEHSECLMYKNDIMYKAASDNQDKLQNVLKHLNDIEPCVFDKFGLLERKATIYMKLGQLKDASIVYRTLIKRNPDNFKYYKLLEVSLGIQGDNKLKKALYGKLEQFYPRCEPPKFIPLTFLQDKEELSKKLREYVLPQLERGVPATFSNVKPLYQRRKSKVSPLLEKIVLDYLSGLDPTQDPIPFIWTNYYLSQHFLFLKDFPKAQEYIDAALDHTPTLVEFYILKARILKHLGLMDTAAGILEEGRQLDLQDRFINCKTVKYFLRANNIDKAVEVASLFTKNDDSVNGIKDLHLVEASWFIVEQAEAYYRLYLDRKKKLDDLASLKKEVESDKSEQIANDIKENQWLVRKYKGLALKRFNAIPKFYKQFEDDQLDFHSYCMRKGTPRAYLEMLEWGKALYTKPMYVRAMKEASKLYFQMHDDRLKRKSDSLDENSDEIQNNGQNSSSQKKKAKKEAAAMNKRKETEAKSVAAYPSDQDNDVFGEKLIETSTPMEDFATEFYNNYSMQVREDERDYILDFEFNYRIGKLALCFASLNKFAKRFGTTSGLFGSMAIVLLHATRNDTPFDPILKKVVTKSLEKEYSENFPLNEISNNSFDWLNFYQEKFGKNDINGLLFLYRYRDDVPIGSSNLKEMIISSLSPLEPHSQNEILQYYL
T1 sequence (P07347 1-238): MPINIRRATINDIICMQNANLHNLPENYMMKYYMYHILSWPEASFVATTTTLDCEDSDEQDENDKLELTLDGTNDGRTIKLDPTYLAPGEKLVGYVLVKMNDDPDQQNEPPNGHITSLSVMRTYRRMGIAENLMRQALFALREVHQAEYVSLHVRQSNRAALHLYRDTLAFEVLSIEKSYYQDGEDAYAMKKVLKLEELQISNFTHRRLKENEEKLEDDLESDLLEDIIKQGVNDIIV

[2] = tested on: methionine N^α -acetyltransferase from S. cerevisiae; test: Effect of protein modification reagents on enzyme activity; assay type: biochemical, Saccharomyces cerevisiae
Method: (§1) N^α -acetyltransferase activity was determined as previously described [Lee et al., J. Biol. Chem. 263:14948-14955 (1988)]. Aliquots of the lysate or chromatographic fractions were added to 1.5 ml Eppendorf tubes containing a reaction mixture of 50 mM HEPES, pH 7.4, 150 mM KCl, 1 mM DTT, 25 μM [^3 H] acetyl coenzyme A (0.5 μCi) and 50 μM synthetic peptide with an adjusted final volume of 100 μl. The assay mixture was incubated at 30° C. for 30 min. The reaction was stopped by adding 17 μl of 0.5M acetic acid and chilled in an ice bath. The reaction samples were filtered through SP membrane discs (Cuno) (previously pre-swollen in 0.5M acetic acid), and then washed three times with 1 ml of 0.5M acetic acid on a Millipore 1225 sampling manifold. The partially dried membranes were placed in scintillation cocktail and counted with a Beckman LS 3801 scintillation counter. One unit of activity was defined as the amount of enzyme able to transfer 1 pmol of [^3 H] acetyl group from [^3 H] acetyl coenzyme A to synthetic peptide per min under standard enzyme assay conditions defined above.
In order to determine the possible catalytic role for different types of amino acid residues in the enzyme, various chemical modifications were carried out (Table 10). Yeast methionine acetyltransferase was incubated with each reagent at 30° C. for 15 min, dialyzed against 50 mM HEPES, pH 7.4, 150 mM, 1 mM DTT at 4° C. for 3 to 4 hr. The enzyme activity was determined under standard assay conditions using PAI (N=3), assayed as described above.

[3] = molecular target: T2, yeast methionine acetyltransferase (M-N^α AT) (Saccharomyces cerevisiae, UniProt Q06504); test: Relative activity of yeast methionine acetyltransferase for N^α -acetylation of synthetic peptides (PAI analogues); assay type: biochemical; set-up: tested at 50 µM; conditions: Table 5; mean ± SD (N=3-5); normalized to yeast proteinase A inhibitor 3
T2 construct: a crude yeast homogenate from the aaa1 mutant strain; endogenous in cells; host or cells: Saccharomyces cerevisiae strain T3A-a (aaa1), crude lysate
T2 sequence (Q06504 1-195): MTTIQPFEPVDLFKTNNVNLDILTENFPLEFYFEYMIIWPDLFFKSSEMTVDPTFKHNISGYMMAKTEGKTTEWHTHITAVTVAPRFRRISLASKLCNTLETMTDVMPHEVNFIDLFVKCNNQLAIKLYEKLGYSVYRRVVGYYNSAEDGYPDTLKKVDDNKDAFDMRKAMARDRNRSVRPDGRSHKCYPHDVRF
T2 sequence (Q12387 2-796 partner limits assumed): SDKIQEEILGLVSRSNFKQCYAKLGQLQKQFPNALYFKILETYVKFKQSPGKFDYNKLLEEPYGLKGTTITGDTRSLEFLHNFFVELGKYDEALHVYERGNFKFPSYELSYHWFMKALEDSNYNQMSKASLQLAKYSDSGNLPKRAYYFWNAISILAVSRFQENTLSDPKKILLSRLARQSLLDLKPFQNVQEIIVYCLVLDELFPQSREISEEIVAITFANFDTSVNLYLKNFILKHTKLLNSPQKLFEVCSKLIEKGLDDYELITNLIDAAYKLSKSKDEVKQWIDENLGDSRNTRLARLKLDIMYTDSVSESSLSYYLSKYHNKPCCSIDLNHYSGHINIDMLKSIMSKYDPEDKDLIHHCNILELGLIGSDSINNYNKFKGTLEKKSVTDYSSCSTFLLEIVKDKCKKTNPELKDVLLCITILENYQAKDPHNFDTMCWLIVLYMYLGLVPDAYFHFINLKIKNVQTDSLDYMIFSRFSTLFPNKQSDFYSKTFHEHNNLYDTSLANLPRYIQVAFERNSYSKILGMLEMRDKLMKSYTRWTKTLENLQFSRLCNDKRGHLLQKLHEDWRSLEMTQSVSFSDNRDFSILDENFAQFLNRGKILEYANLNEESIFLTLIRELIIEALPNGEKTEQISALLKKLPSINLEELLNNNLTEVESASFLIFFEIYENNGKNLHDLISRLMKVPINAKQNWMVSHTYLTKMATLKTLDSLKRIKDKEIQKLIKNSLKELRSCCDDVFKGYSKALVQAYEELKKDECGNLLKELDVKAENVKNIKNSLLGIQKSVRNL
Method: as §1
Proteinase A inhibitor 3 (PAI) (Tsunasawa et al., Methods Enzymol. 106:165-170 (1984); Wold, F., Trends Biochem Sci. 9:256-267 (1984); Driessen et al., CRC Crit. Rev. Biochem 18:281-325 (1985); Mullen et al., EMBO J. 8:2067-2075 (1989); Lee et al., J. Bacteriol. 171:5795-5802 (1989); Hershko et al., Proc. Natl. Acad. Sci. USA 81:7021-7025 (1984); Bachmair et al., Science 234:179-186 (1986); Arfin et al., Biochemistry 27:7979-7984 (1988); Persson et al., Eur. J. Biochem. 152:523-527 (1985); Huang al., Biochemistry 26:8242-8246 (1987); Lee et al., J. Biol. Chem. 263:14948-14955 (1988); Kamitani et al., J. Biol. Chem. 264:13188-13193 (1989)) is the only known yeast protein which is acetylated at its NH2 -terminal methionine residue (Biedermann et al., Carlsberg Res. Commun. 45:225-235 (1980)). […] The numbers in parentheses refer to the residue numbers, and the letters in parentheses refer to the amino acid sequence Abbreviations are as in FIG. 1. Data are reported as mean activity ±SD (N=3-5) and are normalized to the activity of the homogenate towards yeast proteinase A inhibitor 3. The sequence of this protein is:
Thus, by using PAI, its analogues and other peptides, the structural features of M-N^α AT substrates were studied. […] Only three of nineteen analogues were acetylated, although the efficiency of their acetylation varied from 9-55% (Asp>Glu>Gln). Although it was shown previously that iso-cytochrome c variant proteins (Met-Ile-Arg - - -, Met-Ile-Lys - - -, Met-Met-Asn - - -) can be N^α -acetylated in vivo (Tsunasawa et al., J. Biol. Chem. 260:5382-5391 (1985)), synthetic peptides mimicking the NH2 -terminal 24 amino acid residues of these iso-cytochrome c variants were not acetylated by the yeast M-N^αAT.

[4] = reagent 10.0 mM, 30° C. 15 min, then dialyzed, substrate PAI (N=3)

**Q.** How did the “effect of reagent on N^α AT activity” value [1] turn out when `OCCS` [2-mercaptoethanol] was run?
**A.** Its value is “inability”.

**Q.** And the “effect of reagent on M-N^α AT activity” value ([2]; concentration not given)?
**A.** Its value is “did not affect the enzyme activity”.

**Q.** What about the “effect of reagent on M-N^α AT activity” value ([2]; concentration not given, listed as β-mercaptoethanol) of the same molecule?
**A.** Its value is “inability”.

**Q.** And the “Enzyme Activity (%)” value [2, 4]?
**A.** Its value is 96%.

**Q.** For `OC(CS)C(O)CS` (stereo not shown) [DTT], which “effect of reagent on N^α AT activity” value [1] is on record?
**A.** Its value is “inability”.

**Q.** What about the “effect of reagent on M-N^α AT activity” value ([2]; concentration not given) of the same molecule?
**A.** The value was “did not affect the enzyme activity; also recorded: inability”.

**Q.** And the “Enzyme Activity (%)” value [2, 4]?
**A.** The value was 95%.

**Q.** Which results are given for `O=C(O)CI` [IAA, iodoacetic acid]?
**A.** effect of reagent on N^α AT activity [1]: inability; Enzyme Activity (%) [2]: 102% and 75%

**Q.** Which “effect of reagent on N^α AT activity” value [1] does the source give for `NC(=O)CI` [IAM, iodoacetamide] here?
**A.** Its value is “inability”.

**Q.** What about the “effect of reagent on M-N^α AT activity” value ([2]; 1 mM) of the same molecule?
**A.** The value was “without effect”.

**Q.** What about the “effect of reagent on M-N^α AT activity” value ([2]; 10 mM) of the same molecule?
**A.** The value was “partial inactivation”.

**Q.** What about the “effect of reagent on M-N^α AT activity” value ([2]; concentration not given) of the same molecule?
**A.** Its value is “inability”.

**Q.** And the “Enzyme Activity (%)” value ([2]; reagent 1.0 mM, 30° C. 15 min, then dialyzed, substrate PAI (N=3))?
**A.** Its value is 100%.

**Q.** And the “Enzyme Activity (%)” value [2, 4]?
**A.** Its value is 86%.

**Q.** For “[Asp2 ]PROTEINASE A INHIBITOR 3 (1-24) (Yeast): synthetic PAI analogue with substitution at penultimate position (Asp) (MDTDQQKVSEIFQSSKEKLQGDAK; UniProt P01094 1-24, looked up, variant N2D)”, which “Activity (%)” value [3] is on record?
**A.** The value was 55 ± 5%.

**Q.** How did the “Activity (%)” value [3] turn out when “[Gln2 ]PROTEINASE A INHIBITOR 3 (1-24) (Yeast): synthetic PAI analogue with substitution at penultimate position (Gln) (MQTDQQKVSEIFQSSKEKLQGDAK; UniProt P01094 1-24, looked up, variant N2Q)” was run?
**A.** Its value is 9 ± 3%.

**Q.** “[Gly2 ]PROTEINASE A INHIBITOR 3 (1-24) (Yeast): synthetic PAI analogue with substitution at penultimate position (Gly) (MGTDQQKVSEIFQSSKEKLQGDAK; UniProt P01094 1-24, looked up, variant N2G)” was tested. Which “Activity (%)” value [3] did it give?
**A.** The value was 0%.

**Q.** With “[His2 ]PROTEINASE A INHIBITOR 3 (1-24) (Yeast): synthetic PAI analogue with substitution at penultimate position (His) (MHTDQQKVSEIFQSSKEKLQGDAK; UniProt P01094 1-24, looked up, variant N2H)” as the molecule, how does the “Activity (%)” value [3] read?
**A.** The value was 0%.

**Q.** With “[Ile2 ]PROTEINASE A INHIBITOR 3 (1-24) (Yeast): synthetic PAI analogue with substitution at penultimate position (Ile) (MITDQQKVSEIFQSSKEKLQGDAK; UniProt P01094 1-24, looked up, variant N2I)” as the molecule, how does the “Activity (%)” value [3] read?
**A.** The value was 0%.

**Q.** Which “Activity (%)” value [3] does the source give for “[Met2 ]PROTEINASE A INHIBITOR 3 (1-24) (Yeast): synthetic PAI analogue with substitution at penultimate position (Met) (MMTDQQKVSEIFQSSKEKLQGDAK; UniProt P01094 1-24, looked up, variant N2M)” here?
**A.** The value was 0%.

**Q.** Which “Activity (%)” value [3] does the source give for “[Phe2 ]PROTEINASE A INHIBITOR 3 (1-24) (Yeast): synthetic PAI analogue with substitution at penultimate position (Phe) (MFTDQQKVSEIFQSSKEKLQGDAK; UniProt P01094 1-24, looked up, variant N2F)” here?
**A.** The value was 0%.

**Q.** Which “Activity (%)” value [3] does the source give for “[Pro2 ]PROTEINASE A INHIBITOR 3 (1-24) (Yeast): synthetic PAI analogue with substitution at penultimate position (Pro) (MPTDQQKVSEIFQSSKEKLQGDAK; UniProt P01094 1-24, looked up, variant N2P)” here?
**A.** Its value is 0%.

**Q.** For “[Trp2 ]PROTEINASE A INHIBITOR 3 (1-24) (Yeast): synthetic PAI analogue with substitution at penultimate position (Trp) (MWTDQQKVSEIFQSSKEKLQGDAK; UniProt P01094 1-24, looked up, variant N2W)”, which “Activity (%)” value [3] is on record?
**A.** Its value is 0%.

**Q.** For “[Val2 ]PROTEINASE A INHIBITOR 3 (1-24) (Yeast): synthetic PAI analogue with substitution at penultimate position (Val) (MVTDQQKVSEIFQSSKEKLQGDAK; UniProt P01094 1-24, looked up, variant N2V)”, which “Activity (%)” value [3] is on record?
**A.** Its value is 0%.
